These results are taken from patent US20250318997A1, “COMPOSITIONS AND METHODS FOR PREVENTING DENTAL CARIES” (THE TRUSTEES OF THE UNIVERSITY OF PENNSYLVANIA, priority 2022, published 2025).

The nature of series [1]: TMB colorimetric assay for peroxidase-like (catalytic) activity / ROS. The settings on record: for effect of the salt on the catalytic activity of Fer: salt 20 (or 30) μg/ml, Fer 20 μg of Fe/ml, pH 4.5, FIGS. 4A-4C.
Excerpt: To explore whether SnF2 could produce ROS, the 3,3′,5,5′-tetramethylbenzidine (TMB) colorimetric assay was used for peroxidase-like activity following a previously published protocol, with some modifications. TMB is a chromogenic compound that yields a blue color upon oxidation with an absorption peak at 652 nm in the presence of H2O2.
ROS measurement using 3,3′,5,5′-tetramethylbenzidine (TMB) assay: The catalytic activity of Fer+SnF2 was investigated by a colorimetric assay using TMB (Sigma-Aldrich) as a probe, which generates a blue color in the presence of H2O2 after reacting with ROS. Briefly, the stock solution of TMB was made in DMF (25 mg/ml). Fer (0.5 mg of Fe/ml) and SnF2 (0.5 mg/ml, Sigma-Aldrich) were incubated (separately or combined) at room temperature in 0.1 M of sodium acetate buffer (pH 4.5) for 1 h. Afterward, 40 μl of the testing sample (Fer, SnF2, or Fer+SnF2) and 4 μl of TMB (100 μg) were added into 922 μl of 0.1 M sodium acetate buffer (pH 4.5), and absorbance was recorded at 652 nm. Then, 34 μl of H2O2 (1%, v/v) was added. After 10 min additional incubation in the dark, catalytic activities was monitored at 652 nm. For the control, 40 μl of the buffer solution was taken instead of the testing sample. To examine the effect of DMSO, a quencher of hydroxyl radical (·OH), various amounts of DMSO (0-10%) were used. The effect of pH on the catalytic activity of the combined treatment of Fer+SnF2 was determined at three different pH values (4.5, 5.5, and 6.5), as described above. The comparison of the catalytic activity of Fer+NaF and Fer+SnF2 was also conducted using the same protocol as described above, except after adding H2O2, the reaction mixture was incubated only for 5 min.
Subsequently, 40 μl of the combined mixture of Fer (20 μg of Fe) and BaF2 (20 or 30 μg) and 4 μl of TMB (100 μg) were mixed into 922 μl of 0.1 M sodium acetate buffer (pH 4.5). Afterward, H2O2 (1%) was added. Finally, the absorbance of TMB was monitored at 652 nm after 5 min of incubation. In a similar way, the catalytic activity of SnCl2 (final concentration 20 μg/ml, Sigma-Aldrich) was also investigated. The effect of incubation time on the catalytic activity was investigated after incubating Fer and SnF2 for a predetermined time.
Additionally, the catalytic activity of the released iron and nanoparticle pellet was investigated at pH 4.5 via TMB assay.
The next series relates to S. mutans biofilm. The series is described as follows: In vitro biofilm model on saliva-coated hydroxyapatite disc: viable cells (CFU) and biomass (dry weight). The format is cell-based, Streptococcus mutans UA159. Here is the method:
Antibiofilm activity was evaluated using different concentrations of Fer and SnF2 in the presence of H2O2 using the saliva-coated hydroxyapatite disc (tooth enamel mimic) model in the presence of sucrose. Initially, Fer (1 mg of Fe/ml) was mixed with various concentrations of SnF2 (0-250 ppm of F), and the number of viable cells and biomass were determined.
Biofilms were formed using the saliva-coated hydroxyapatite disc (sHA) model as described elsewhere. Streptococcus mutans UA159, a proven virulent and well-characterized cariogenic pathogen, were grown in ultra-filtered (10 kDa, cutoff; Millipore, Billerica, MA) tryptone-yeast extract (UFTYE) broth at 37° C. and 5% CO2 to mid-exponential phase. Briefly, HA discs (surface area of 2.7±0.2 cm^2; Clarkson Chromatography Inc., South Williamsport, PA) were vertically suspended in 24-well plates using a custom-made wire disc holder and coated with filter-sterilized human saliva for 1 h at 37° C. Each sHA disc was inoculated with ˜2×10^5 CFU of S. mutans per ml in UFTYE containing 1% sucrose at 37° C. and 5% CO2. Topical treatment of Fer and SnF2 or vehicle control was performed twice daily for 10 min at 0, 6, 19, and 29 h. The culture medium was changed twice daily (at 19 h and 29 h). At the end of the experimental period (43 h), the biofilms were placed in 2.8 ml of H2O2 (1%, v/v) for 5 min. After H2O2 exposure, the biofilms were removed and homogenized via bath sonication followed by probe sonication (at an output of 7 W for 30 s). The homogenized suspension was serially diluted and plated onto blood agar plates using an automated EddyJet Spiral Plater (IUL, SA, Barcelona, Spain). The numbers of viable cells in each biofilm were calculated by counting CFU. The remaining suspension was centrifuged at 5500 g for 10 min, the resulting cell pellets were then washed, oven-dried, and weighed. SnF2 and NaF treatment groups were performed according to the same procedure.

A short description of series [2]: Stability of SnF2 in aqueous solution / sodium acetate buffer (photographs, UV-vis). The conditions noted are these: SnF2 alone, 0.1 M sodium acetate buffer pH 5.5; FIG. 2B. The text has this:
It is noteworthy that SnF2 has limited stability in aqueous solutions owing to its high susceptibility to hydrolysis and oxidation, requiring chemical additives (e.g., chelating agents) or water removal, which can reduce fluoride bioavailability. […] To further investigate the stability of SnF2 in the presence of Fer, SnF2 (250 ppm of F) was mixed with increasing amounts of Fer in 0.1 M sodium acetate buffer at different pH values.
The peak at 4.0-4.2 ppm (denoted as “a”) is attributed to the protons of the carboxymethyl moieties, as determined previously. […] Note that similar ^1H NMR studies of SnF2 and Fer are not possible due to the superparamagnetic nature of Fer interfering with ^1H NMR measurements.
The Fer formulation also contains mannitol, which is an antioxidant. Since antioxidants can prevent the oxidation of SnF2, SnF2 was added to various amounts of mannitol (1-10 mg/ml).

Series [3] in a line: Hydroxyl radical production by PL using coumarin. The conditions noted are these: pH 4.5, H2O2; FIGS. 3F, 15.
Description: Comparison of hydroxyl radical (·OH) production: ·OH generated by Fer and Fer+SnF2 in 0.1 M sodium acetate buffer (pH 4.5) was compared by PL technique using coumarin (Sigma-Aldrich) as a ·OH trapping molecule. First, stock solution of Fer (0.5 mg of Fe/ml) with or without SnF2 (0.5 mg/ml) was incubated in 0.1 M sodium acetate buffer (pH 4.5) for 1 h. Afterward, Fer (20 μg of Fe/ml) with or without SnF2 (20 μg/ml) was mixed with coumarin (0.1 mM) in a 10 mm path length cuvette, and then H2O2 (1%, v/v) was added to the reaction mixture to initiate the reaction. The PL intensity was recorded at 452 nm at different incubation times with an excitation wavelength of 332 nm. For the control, all the experimental conditions were the same, except that the testing samples were not used.
Series [4] in a line: Stability of Fer/SnF2 with citric acid after 1 month at room temperature (photographs, hydrodynamic diameter). It is filed as physicochemical. Here is the method: FIG. 21 provides photographs of Fer+SnF2 when mixed with various amounts of citric acid after 1 month incubation at room temperature.

For the compound `[Ba+2].[F-].[F-]` [BaF2, barium fluoride], the “effect of the salt on the catalytic activity of Fer” value (“effect of the salt” for short) in series [1] is given as “Neither NaF nor BaF2 increased the catalytic activity of Fer”.

As for `[Cl][Sn][Cl]` [SnCl2], in series [1], the “effect of the salt” value was “enhanced the catalytic activity of Fer”.

With `[F-].[Na+]` [NaF, sodium fluoride], in series [1], the “effect of the salt” value is “Neither NaF nor BaF2 increased the catalytic activity of Fer”.

Take `[F][Sn][F]` [SnF2, stannous fluoride]: the “growth of S. mutans (bacterial viability)” value with S. mutans biofilm (1000 ppm of F, compared with NaF, FIG. 9A) is given as “significantly inhibit the growth of S. mutans”. Also, the biomass entry in the series on S. mutans biofilm (1000 ppm of F, compared with NaF, FIG. 9B) is on record as “reduce biomass”; with S. mutans biofilm (SnF2 250 ppm of F alone, FIG. 1D), “substantially reduce biomass”. For the same compound, the “appearance of SnF2 solution” value in series [2] is recorded as “Immediate aggregation”. In addition, in series [1] (pH 4.5, H2O2, FIGS. 3A, 3B), the “ROS production / catalytic activity (TMB absorption at 652 nm)” value is listed as “did not produce a noticeable amount of ROS”. Further, the “effect of post-mixed SnF2 on the catalytic activity of Fer” value in series [1] (post-mixed, not pre-mixed and incubated, FIG. 20) is “reduced the catalytic activity of Fer”. Also, the “·OH production (PL intensity of 7-hydroxycoumarin at 452 nm)” value in series [3] was “did not produce a noticeable amount of ·OH”.

On to `O=C(O)CC(O)(CC(=O)O)C(=O)O` [citric acid], for which, in series [4], the “amount of citric acid that improves the stability of the Fer/SnF2 formulation” value was at least 125 µg/mL.
